{"source": "patent US8975086B2", "about": "“Method for treating or preventing bladder cancer using the DEPDC1 polypeptide” (OncoTherapy Science, Inc., priority 2008, dated 2015)", "key": {"[1]": {"system": "NF-kappaB (p65)", "assay": "Immunocytochemical staining of nuclear NF-kappaB (p65) in UM-UC-3 cells", "assay_type": "cell-based, human", "conditions": "UM-UC-3 cells treated with peptide for 12 hours", "experimental": "For detection of NF-kappaB expression in the nucleus after treatment with dominant-negative peptide (see “Dominant-negative peptide section”), UM-UC-3 cells (1×10^5) were seeded and then treated with each peptide for 12 hours. Subsequently, immunocytochemical staining was performed using anti-NF-kappaB (p65) monoclonal antibody (diluted at 1:200) (Santa Cruz, Calif., USA). Fluorescent images and nuclear intensity of NF-kappaB (p65) protein were obtained under a TCS SP2 AOBS microscope (Leica, Tokyo, Japan). For the image analysis, the nuclear signal intensities of NF-kappaB (p65) were measured by observing nuclei of 50 cells treated with the 11R-DEP611-628 peptide or scramble peptide (see “Dominant-negative peptide section”). Assays were performed in triplicate independently."}, "[2]": {"molecular_target": "T1, DEPDC1-ZNF224 complex (Homo sapiens, UniProt Q9NZL3, H562R/M118V)", "T1 construct": "expressed in transfected cells; host or cells: COS7 cells, transiently co-transfected (pCAGGS-type vectors)", "T1 sequence (Q9NZL3 whole entry M118V/H562R, one chain of several)": "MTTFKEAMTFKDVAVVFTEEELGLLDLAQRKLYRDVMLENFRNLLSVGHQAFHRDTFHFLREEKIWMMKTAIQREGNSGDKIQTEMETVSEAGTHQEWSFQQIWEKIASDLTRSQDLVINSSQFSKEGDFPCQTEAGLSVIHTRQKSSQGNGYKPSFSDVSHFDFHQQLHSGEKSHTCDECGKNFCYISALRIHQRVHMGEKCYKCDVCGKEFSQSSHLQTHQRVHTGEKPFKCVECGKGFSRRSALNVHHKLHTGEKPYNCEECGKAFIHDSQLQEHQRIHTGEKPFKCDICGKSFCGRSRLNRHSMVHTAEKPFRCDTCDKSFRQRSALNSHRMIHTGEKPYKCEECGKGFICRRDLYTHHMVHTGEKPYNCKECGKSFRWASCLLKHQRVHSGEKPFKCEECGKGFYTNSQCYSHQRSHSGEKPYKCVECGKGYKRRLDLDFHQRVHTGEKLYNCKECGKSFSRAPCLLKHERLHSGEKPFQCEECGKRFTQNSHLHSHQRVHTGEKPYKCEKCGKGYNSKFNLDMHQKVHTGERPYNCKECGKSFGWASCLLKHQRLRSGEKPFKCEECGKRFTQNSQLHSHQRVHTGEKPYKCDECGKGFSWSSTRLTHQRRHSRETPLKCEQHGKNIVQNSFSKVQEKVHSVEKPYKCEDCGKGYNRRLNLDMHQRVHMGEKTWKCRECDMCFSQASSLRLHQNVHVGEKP", "assay": "Immunoprecipitation of exogenous DEPDC1-HA and ZNF224-FLAG complex in peptide-treated COS7 cells", "assay_type": "cell-based", "conditions": "for complex formation of DEPDC1-HA and ZNF224-FLAG (immunoprecipitation): four peptides at 3 micro M added 6 hours after transfection, twenty-four hours later; for complex formation between exogenously expressed DEPDC1-HA and ZNF224-Flag (immunoprecipitation): six peptides added 6 hours after transfection, immunoprecipitation fifteen hours later", "experimental": "To confirm the interaction between DEPDC1 and ZNF224 in bladder cancer cells and identify the ZNF224-binding region in DEPDC1, the immunoprecipitation experiment was carried out as follows. First, it was confirmed interaction between endogenous DEPDC1 and exogenous ZNF224 by immunoprecipitation experiments using anti-DEPDC1 polyclonal antibody for immunoprecipitation and anti-FLAGM2 antibody (Amersham) for immunoblotting. To further determine the ZNF224-binding region in DEPDC1, it was cloned six partial constructs of DEPDC1 (DEPDC11-147, DEPDC1141-300, DEPDC1177-597, DEPDC1300-669, DEPDC1587-740 and DEPDC1654-811) into appropriate sites of COOH-terminal HA-tagged pCAGGS vector. The nucleotide sequence of each clones were determined with an ABI Prism 3700 DNA sequencer (Applied Biosystems, Foster City, Calif.), using each primer. Cell extracts from Cos7 cell line, transfected with each of plasmids expressing one of these six partial segments of DEPDC1, were precleared by incubation at 4 degrees C. for 1 hour with 100 micro 1 of protein G-agarose beads in final volumes of 2 mL of immunoprecipitation buffer (0.5% NP40, 50 mmol/L Tris-HCl, 150 mmol/L NaCl) in the presence of proteinase inhibitor. After centrifugation at 1,000 rpm for 5 minutes at 4 degrees C., the supernatants were incubated at 4 degrees C. with anti-HA rat for 1 hours. After the beads were collected from each sample by centrifugation at 5,000 rpm for 2 minutes and washed six times with 1 mL of immunoprecipitation buffer, the washed beads were re-suspended in 50 uL of Laemmli sample buffer and boiled for 3 minutes before the proteins were separated on 10% SDS-PAGE gels. Immunoblot was done using anti-HA rat antibody and anti-FLAGM2 monoclonal antibody, respectively (Sigma-Aldrich Co., St. Louis, Mo.).\nTo examine the effect of these polyarginine (11R)-linked peptides on inhibition of the DEPDC1-ZNF224 complex formation, they were co-transfected with DEPDC1 and ZNF224 constructs into COS7 cells. […] Immunoprecipitation were performed according to methods as described in “Identification of the ZNF224-binding regions in DEPDC1 protein” section."}, "[3]": {"system": "DLG1", "assay": "Quantitative RT-PCR of downstream gene DLG1 in UM-UC-3 cells", "assay_type": "cell-based, human", "experimental": "(§1) UM-UC-3 cells were transfected with siRNA against DEPDC1 (si-DEPDC1), ZNF224 (si-ZNF224-2) or EGFP (control siRNA). The target sequences of the synthetic oligo-duplex for siRNA against DEPDC1 (Sigma Aldrich) were as follows: si-DEPDC1,5′-CCAAAGUUCCGUAGUCUAA-3′(SEQ ID NO: 75), ZNF224 (si-ZNF224-2) or EGFP as described in “RNA interference assay” section.\n(§2) Total RNAs were extracted from each sample at 12 hours and 24 hours after the transfection, labeled with Cy5 (for si-DEPDC1- and si-ZNF224-2-transfected cells) or Cy3 (for si-EGFP-transfected cells), and subjected to cohybridization onto cDNA microarrayslides containing 36468 cDNA or ESTs as described previously (Takata R, et al., Clin Cancer Res 2005 11:2625-36). After normalization of the data, it was excluded genes from further analysis when Cy5 and Cy3 dyes yielded signals intensities lower than the cut-off value. For other genes, the Cy5/Cy3 ratio was calculated using the raw data of each samples. […] Validation of candidate downstream genes of both DEPDC1 and ZNF224 was carried out with quantitative RT-PCR analysis using the SYBR green dye (Rhoche) and the same amplified RNAs from UM-UC-3 cells used for cDNA microarray experiments, with each gene-specific primer as follows;\n(§3) All experiments were performed in duplicate. The calculated quantity of the target gene for each sample was then divided by the average calculated quantity of beta 2-microglobulin (beta 2-MG) corresponding to each sample to give a relative expression of the target gene for each sample"}, "[4]": {"system": "UM-UC-3 cells", "assay": "MTT assay of cell viability of UM-UC-3 bladder cancer cells treated with 11R peptides", "assay_type": "cell-based, human", "conditions": "for cell viability measured by MTT assay: UM-UC-3 cells, peptide 1, 2 or 3 micro M added every 24 hours for 5 days", "experimental": "(§4) UM-UC-3 and normal human dermal fibroblast-derived NHDF-Ad cell lines were incubated with the 11R peptides at the concentration of 0, 1, 2, or 3 micromol/L for 5 days. Each peptide was added at every 24 hours at the appropriate concentrations and the viability of cells was evaluated by MTT assay at every day after the treatment.\n(§5) To examine the effect of DEPDC1611-628 peptide on cell growth of UM-UC-3 and NHDF cells, the cells were incubated with the DEPDC1611-628 or scramble peptides at the concentration of 0, 1, 2, or 3 micro M for 5 days, respectively. Each peptide was added at every 24 hours at the appropriate concentrations and the viability of cells was evaluated by MTT assay every day. Absorbance at 570 nm wavelength was measured with a Microplate Reader 550 (Bio-Rad). These experiments were performed in triplicate."}, "[5]": {"system": "A20 (TNFAIP3)", "assay": "Quantitative RT-PCR of downstream gene A20 in UM-UC-3 cells", "assay_type": "cell-based, human", "conditions": "UM-UC-3 cells transfected with siRNA, compared with siEGFP", "experimental": "as §1\nas §2, with “After normalization of the data, it was excluded genes from further analysis when Cy5 and Cy3 dyes yielded signals intensities lower than the cut-off value.” left out\nas §3"}, "[6]": {"system": "ZNF224 transcript", "assay": "Semiquantitative RT-PCR of knockdown effect of ZNF224 siRNA expression vectors in UM-UC-3 cells", "assay_type": "cell-based, human", "conditions": "compared with si-EGFP control", "experimental": "It has been previously established a vector-based RNA interference (RNAi) system, psiU6BX3.0 that was designed to express small interfering RNAs (siRNA) in mammalian cells (Shimokawa T, et al., Cancer Res 2003 63:6116-20). Plasmids designed to express siRNA to ZNF224 were prepared by cloning of double-stranded oligonucleotides into the BbsI site of psiU6BX vectors. The target sequences of the synthetic oligonucleotides for RNAi were as follows:\nsi-ZNF224#2: 5′-CCGCAGGAACACATCAAGA-3′ (SEQ ID NO: 10) for the ZNF224-specific sequence. DNA sequences of all constructs were confirmed by DNA sequencing. […] To evaluate the knockdown effect of siRNAs by semi-quantitative RT-PCR with specific primers (see below), total RNAs were extracted from the transfected cells after 4-day incubation with neomycin (Geneticin, Invitrogen). […]\n5′-[…]-3′ (SEQ ID NO: 13) and 5′-[…]-3′ (SEQ ID NO: 14) for GAPDH as a quantitative control. The transfected UM-UC-3 cells were cultured for 21 or 14 days in the presence of 1.0 mg/ml of neomycin, and the number of colonies were counted by Giemsa staining. Viability of UM-UC-3 cells was evaluated by 3-(4,5-dimethylthiazol-2-yl)-2,5-diphenyltetrazolium bromide (MTT) assay at 14 days after the treatment of neomycin with cell counting kit-8 according to manufacturer's recommendation (Wako, Osaka, Japan). […]"}, "[7]": {"system": "UM-UC-3 cells", "assay": "MTT and colony-formation assays of UM-UC-3 cells transfected with siRNA expression vectors", "assay_type": "cell-based, human", "conditions": "UM-UC-3 cells transfected with siRNA expression vector, neomycin selection", "text": "si-ZNF224#2: 5′-CCGCAGGAACACATCAAGA-3′ (SEQ ID NO: 10) for the ZNF224-specific sequence. DNA sequences of all constructs were confirmed by DNA sequencing. Eight-micrograms each of siRNA-expression vector were transfected into UM-UC-3 cells (1×10^6 cells per 10 cm-dish), respectively, using FuGENE6 transfection reagent (Roche) according to the supplier's recommendations. To evaluate the knockdown effect of siRNAs by semi-quantitative RT-PCR with specific primers (see below), total RNAs were extracted from the transfected cells after 4-day incubation with neomycin (Geneticin, Invitrogen). The specific primer sets for RT-PCR are as follows; 5′-[…]-3′ (SEQ ID NO: 11) and 5′-[…]-3′ (SEQ ID NO: 12) for ZNF224;\n5′-[…]-3′ (SEQ ID NO: 13) and 5′-[…]-3′ (SEQ ID NO: 14) for GAPDH as a quantitative control. The transfected UM-UC-3 cells were cultured for 21 or 14 days in the presence of 1.0 mg/ml of neomycin, and the number of colonies were counted by Giemsa staining. Viability of UM-UC-3 cells was evaluated by 3-(4,5-dimethylthiazol-2-yl)-2,5-diphenyltetrazolium bromide (MTT) assay at 14 days after the treatment of neomycin with cell counting kit-8 according to manufacturer's recommendation (Wako, Osaka, Japan). Absorbance at 570 nm wavelength was measured with a Microplate Reader 550 (Bio-Rad, Hercules, Calif.). These experiments were performed in triplicate."}, "[8]": {"system": "NHDF-Ad cells", "assay": "MTT assay of cell viability of normal human dermal fibroblasts treated with peptide", "assay_type": "cell-based", "conditions": "DEPDC1 and ZNF224 hardly detectable", "experimental": "as §4, §5"}}, "note": "Where a SMILES comes first, the peptide text is derived from it."}
{"molecule": "RRRRRRRRRRR-GGG-LRMSRLSPNMIMQRPKRL (RRRRRRRRRRRGGGLRMSRLSPNMIMQRPKRL; An artificially synthesised dominant negative peptide) [scramble611-628]", "values": [{"measurement": "nuclear-staining of NF-kappa B (p65) protein", "setting": "[1]", "result": "no effect"}, {"measurement": "complex formation of DEPDC1-HA and ZNF224-FLAG (immunoprecipitation)", "setting": "[2]", "result": "no effect"}, {"measurement": "complex formation between exogenously expressed DEPDC1-HA and ZNF224-Flag (immunoprecipitation)", "setting": "[2]", "result": "not inhibit"}, {"measurement": "expression of DLG1 (quantitative RT-PCR)", "setting": "[3]; bladder cancer cells after peptide treatment", "result": "not"}, {"measurement": "cell viability measured by MTT assay", "setting": "[4]", "result": "no effect"}, {"measurement": "cell growth or cellular morphology", "setting": "[4]; cells treated with peptide, FIG. 5D", "result": "no alterations in cell growth or cellular morphology"}]}
{"molecule": "5′-CCAAAGUUCCGUAGUCUAA-3′ [si-DEPDC1]", "values": [{"measurement": "DLG1 transcript (quantitative RT-PCR)", "setting": "[3]; UM-UC-3 cells transfected with siRNA, compared with siEGFP", "result": "time-dependent increase"}, {"measurement": "A20 transcript (quantitative RT-PCR)", "setting": "[5]", "result": "time-dependent increase"}]}
{"molecule": "5′-CCGATTTGGATGATGAAGA-3′ [si-ZNF224-1]", "values": [{"measurement": "amount of ZNF224 transcript (knockdown effect)", "setting": "[6]", "result": "significantly suppressed"}, {"measurement": "growth of UM-UC-3 cell (MTT and colony-formation assays)", "setting": "[7]", "result": "marked suppression growth"}]}
{"molecule": "CC[C@H](C)[C@H](NC(=O)[C@H](CCSC)NC(=O)[C@H](CCCNC(=N)N)NC(=O)[C@H](CCSC)NC(=O)[C@H](CC(C)C)NC(=O)[C@H](CC(C)C)NC(=O)[C@H](CCC(N)=O)NC(=O)[C@H](CC(C)C)NC(=O)[C@H](CCCCN)NC(=O)[C@H](CCCNC(=N)N)NC(=O)[C@H](CCCNC(=N)N)NC(=O)[C@H](CC(N)=O)NC(=O)[C@@H]1CCCN1C(=O)[C@@H]1CCCN1C(=O)CNC(=O)CNC(=O)CNC(=O)[C@H](CCCNC(=N)N)NC(=O)[C@H](CCCNC(=N)N)NC(=O)[C@H](CCCNC(=N)N)NC(=O)[C@H](CCCNC(=N)N)NC(=O)[C@H](CCCNC(=N)N)NC(=O)[C@H](CCCNC(=N)N)NC(=O)[C@H](CCCNC(=N)N)NC(=O)[C@H](CCCNC(=N)N)NC(=O)[C@H](CCCNC(=N)N)NC(=O)[C@H](CCCNC(=N)N)NC(=O)[C@@H](N)CCCNC(=N)N)C(=O)N[C@@H](CO)C(=O)N[C@@H](CCCNC(=N)N)C(=O)N[C@@H](CCSC)C(=O)N[C@@H](CO)C(=O)O", "note": "[11R-DEP611-628, RRRRRRRRRRR-GGG-PPNRRKLQLLMRMISRMS] (H-RRRRRRRRRRRGGGPPNRRKLQLLMRMISRMS-OH)", "values": [{"measurement": "cell viability measured by MTT assay", "setting": "[8]", "result": "no significant effect on cell viability"}, {"measurement": "cell viability measured by MTT assay", "setting": "[8]; listed as DEPDC1611-628", "result": "no off-target effect"}]}
{"molecule": "RRRRRRRRRRR-GGG-AIDALQLCCLLLPPPNRR (RRRRRRRRRRRGGGAIDALQLCCLLLPPPNRR; An artificially synthesised dominant negative peptide) [11R-DEP598-615, 11R-linked DEPDC1 codons 598-615 peptide]", "values": [{"measurement": "complex formation of DEPDC1-HA and ZNF224-FLAG (immunoprecipitation)", "setting": "[2]", "result": "moderate effect"}, {"measurement": "complex formation between exogenously expressed DEPDC1-HA and ZNF224-Flag (immunoprecipitation)", "setting": "[2]", "result": "slight inhibition"}, {"measurement": "cell viability measured by MTT assay", "setting": "[4]", "result": "moderate suppress in cell viability in dose-dependent manner"}]}
